The results in this text go back to ChEMBL document CHEMBL1149990, “1-(2-METHOXYPHENYL)-4-ALKYLPIPERAZINES: EFFECT OF THE N-4 SUBSTITUENT ON THE AFFINITY AND SELECTIVITY FOR DOPAMINE D4 RECEPTOR” (Bioorg Med Chem Lett, 1997).

The target in assay [1] is T1, Adrenergic receptor alpha-1 (Rattus norvegicus, UniProt P15823+P23944+P43140).
T1 sequence (P15823 whole entry): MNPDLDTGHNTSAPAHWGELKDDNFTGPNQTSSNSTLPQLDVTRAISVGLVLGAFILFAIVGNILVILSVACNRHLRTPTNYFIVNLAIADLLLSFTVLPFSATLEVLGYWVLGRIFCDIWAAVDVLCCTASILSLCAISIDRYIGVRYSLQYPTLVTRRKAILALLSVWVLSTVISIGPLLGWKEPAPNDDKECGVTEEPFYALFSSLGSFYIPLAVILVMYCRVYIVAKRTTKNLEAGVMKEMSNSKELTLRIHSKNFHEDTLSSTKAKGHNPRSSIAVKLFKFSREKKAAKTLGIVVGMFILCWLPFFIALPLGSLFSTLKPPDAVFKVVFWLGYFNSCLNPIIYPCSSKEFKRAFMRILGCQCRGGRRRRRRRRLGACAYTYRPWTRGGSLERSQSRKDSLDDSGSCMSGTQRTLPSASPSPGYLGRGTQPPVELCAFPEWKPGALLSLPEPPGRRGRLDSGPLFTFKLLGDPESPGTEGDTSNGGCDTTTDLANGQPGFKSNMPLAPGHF
T1 sequence (P23944 whole entry): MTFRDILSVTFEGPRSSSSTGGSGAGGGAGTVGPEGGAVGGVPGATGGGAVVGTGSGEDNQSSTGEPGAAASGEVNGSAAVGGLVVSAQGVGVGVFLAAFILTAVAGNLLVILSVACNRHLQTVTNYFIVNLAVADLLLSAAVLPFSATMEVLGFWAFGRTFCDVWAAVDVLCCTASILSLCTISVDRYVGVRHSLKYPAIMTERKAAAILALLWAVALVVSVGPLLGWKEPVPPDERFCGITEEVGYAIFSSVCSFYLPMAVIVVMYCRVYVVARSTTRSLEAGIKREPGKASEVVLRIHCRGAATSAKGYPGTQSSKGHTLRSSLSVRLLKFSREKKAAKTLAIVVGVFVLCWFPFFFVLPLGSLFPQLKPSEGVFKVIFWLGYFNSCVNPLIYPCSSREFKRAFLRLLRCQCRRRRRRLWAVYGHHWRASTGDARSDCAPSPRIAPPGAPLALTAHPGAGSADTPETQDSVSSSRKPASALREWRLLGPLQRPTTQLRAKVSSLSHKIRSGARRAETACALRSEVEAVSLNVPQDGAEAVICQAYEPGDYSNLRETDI
T1 sequence (P43140 whole entry): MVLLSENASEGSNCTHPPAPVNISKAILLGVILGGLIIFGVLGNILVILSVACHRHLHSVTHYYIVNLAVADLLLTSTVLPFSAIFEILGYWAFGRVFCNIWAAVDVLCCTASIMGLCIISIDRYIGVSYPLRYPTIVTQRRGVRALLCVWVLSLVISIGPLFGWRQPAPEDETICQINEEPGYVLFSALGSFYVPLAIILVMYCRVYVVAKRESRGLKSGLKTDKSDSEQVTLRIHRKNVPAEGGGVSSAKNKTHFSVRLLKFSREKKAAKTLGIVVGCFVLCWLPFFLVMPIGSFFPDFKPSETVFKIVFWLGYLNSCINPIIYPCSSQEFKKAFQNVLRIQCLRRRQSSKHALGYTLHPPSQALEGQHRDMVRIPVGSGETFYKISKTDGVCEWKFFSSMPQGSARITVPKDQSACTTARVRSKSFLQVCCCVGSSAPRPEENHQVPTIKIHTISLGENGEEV
Kind of assay: Displacement of [3H]prazosin from Alpha-1 adrenergic receptor of rat cerebral cortex. The format is tissue-based.

Assay [2] deals with T2, D(4) dopamine receptor (Homo sapiens, UniProt P21917).
T2 sequence (P21917 whole entry): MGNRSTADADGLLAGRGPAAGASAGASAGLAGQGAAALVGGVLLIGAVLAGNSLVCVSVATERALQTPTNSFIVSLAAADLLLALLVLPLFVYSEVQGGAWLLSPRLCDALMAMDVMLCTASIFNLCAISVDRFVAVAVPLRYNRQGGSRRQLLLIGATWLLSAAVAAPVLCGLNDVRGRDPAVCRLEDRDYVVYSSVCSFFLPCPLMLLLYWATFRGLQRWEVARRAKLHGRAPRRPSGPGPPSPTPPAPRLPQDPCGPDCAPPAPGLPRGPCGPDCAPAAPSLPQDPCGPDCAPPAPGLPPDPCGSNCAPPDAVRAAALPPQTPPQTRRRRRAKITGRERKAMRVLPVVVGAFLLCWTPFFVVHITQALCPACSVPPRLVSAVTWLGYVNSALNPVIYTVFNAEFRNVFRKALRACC
Kind of assay: Displacement of [3H]YM-09151-2 from human Dopamine receptor D4.2 expressed in baculovirus Sf9 cells.

As a reminder, the Ki is a measure of affinity in units of concentration, obtained from inhibition or displacement. Low values mean higher affinity, high ones lower affinity. On to `COc1cccc(C(=O)CCCCN2CCN(c3ccccc3OC)CC2)c1`, for which the values for the Ki in assay [1] and in assay [2] were 41 nM and 43 nM, respectively.

In assay [2], `COc1ccccc1N1CCN(CCNC(=O)C2CCCc3c(OC)cccc32)CC1` (stereo not given) returned a Ki of 22 nM.

In the case of `COc1cccc(C(=O)CCCN2CCN(c3ccccc3OC)CC2)c1`, the Ki stood at 19 nM in assay [1] and 1.7 nM in assay [2].

On to `COc1cc(N)c(Cl)cc1C(=O)NCCN1CCN(c2ccccc2OC)CC1`, for which the figures for the Ki in assay [1] and in assay [2] were 8 nM and 19 nM, respectively.

In the case of `COc1ccccc1N1CCN(CCCC2CCCc3c(OC)cccc32)CC1` (stereo not given), the inhibitory constant (Ki) in assay [1] is recorded as 1 nM.

With `COc1ccccc1N1CCN(CCC(=O)NC2CCCc3c(OC)cccc32)CC1` (stereo not given), the Ki in assay [1] worked out at 125 nM; in assay [2], 67 nM.

In the case of `COc1ccccc1N1CCN(CCCCC2CCCc3c(OC)cccc32)CC1` (stereo not given), the Ki was found to be 65 nM in assay [1] and 43 nM in assay [2].

Consider `COc1ccccc1N1CCN(CCCNC(=O)C2CCCc3cccc(OC)c32)CC1` (stereo not given), for which the Ki came out at 70 nM in assay [1] and 49 nM in assay [2].

In assay [2], `COc1ccccc1N1CCN(Cc2cccc(-c3ccccc3)c2)CC1` showed a Ki of 8 nM.
